Data set [1] can be described thus: Solubility in 10 mM phosphate buffer (pH 7.4). Format: physicochemical. The conditions noted are these: pH 7.4, aqueous buffer, kinetic from dmso stock, 60 minutes at room temperature, filtered, read-out: MTS Solubility in Buffer (pH 7.4). As for the experimental part:
Solubility in 10 mM Phosphate Buffer (pH 7.4)
The solubility sample testing of the compounds was performed by in phosphate buffer at pH 7.4 and using HPLC-MS detection. A stock solution of […] in DMSO was prepared for each compound. For the solubility test sample, 100 μL of the stock solution was diluted with 3.9 mL of a 10 mM phosphate buffer at […] to a final concentration of […]. The buffer solution was left to stand for 60 minutes at room temperature and then filtered. The filtrate was analyzed against two calibration points of the same analyte prepared at […] using HPLC-MS. These calibration points were prepared from the same stock solution as the solubility sample by diluting it with DMSO:H2O (1:1) 1:40 and then again 1:10. The chromatographic signal area of the analyte in the solubility sample was then compared to the chromatographic signal area of the two calibration samples.
(§1) The chromatographic separation was performed on a Waters HPLC-MS system using a 50×2.1 mm×Bridge C18 column and a gradient elution of Water with 0.1% formic acid and acetonitrile with 0.1% formic acid. The analytes were analyzed in positive electro-spray mode using the (M+H)^+ in single ion recording.

The test system of data set [2] is Mycobacterium intracellulare. The data set is described as follows: Assay 2: STC colorimetric microplate assay, M. intracellulare. The data set is classed as cell-based.
The test system of a further data set is patients with COPD. To be noted: double blinded clinical trials; cited from earlier work.
Data set [3] concerns Bacillus megaterium (BM-11). Briefly: Assay 1: antimicrobial broth dilution on microtiter plates, Bacillus megaterium. Format: cell-based. The conditions noted are these: Priestia megaterium. As for the experimental part: (§2) The antimicrobial activity of each Example compound was investigated. The Minimal Inhibitory Concentration (MIC—the minimal dose required to inhibit bacterial growth) and the Minimal Bactericidal Concentration (MBC—the minimal dose required to kill bacteria) were measured for each compound for Streptococcus pneumoniae (ATCC49619), Staphylococcus aureus (ATCC29213), Bacillus megaterium (BM-11) and Escherichia coli (D-21) using an antimicrobial broth dilution method on microtiter plates. The Minimal Inhibitory Concentration (MIC) was also measured for each example compound and azithromycin with Mycobacterium avium complex (MAC). […]
(§3) The Minimal Inhibitory Concentration (MIC—the minimal dose required to inhibit bacterial growth) and the Minimal Bactericidal Concentration (MBC—the minimal dose required to kill bacteria) were measured for each compound for Streptococcus pneumoniae (ATCC49619), Staphylococcus aureus (ATCC29213), Bacillus megaterium (BM-11) and Escherichia coli (D-21) using an antimicrobial broth dilution method on 96 well microtiter plates. […]
(§4) After addition of the bacterial solution, the plates were incubated at 35° C. for 18 h. The bacterial growth of each well was then recorded and then the Minimal Inhibitory Concentration (MIC) and Minimal Bactericidal Concentration ([…]) were determined.

In data set [4] the test system is Streptococcus pneumoniae (ATCC49619). Briefly: Assay 1: antimicrobial broth dilution on microtiter plates, Streptococcus pneumoniae. Format: cell-based. To be noted: Str. As for the experimental part:
as §2, §3, §4

For another data set, the system named is Escherichia coli (D-21). The data set is described as follows: Assay 1: antimicrobial broth dilution on microtiter plates, Escherichia coli. Format: cell-based. The conditions noted are these: E. coli (D-21). As for the experimental part: The antimicrobial activity of each Example compound was investigated. The Minimal Inhibitory Concentration (MIC—the minimal dose required to inhibit bacterial growth) and the Minimal Bactericidal Concentration (MBC—the minimal dose required to kill bacteria) were measured for each compound for Streptococcus pneumoniae (ATCC49619), Staphylococcus aureus (ATCC29213), Bacillus megaterium (BM-11) and Escherichia coli (D-21) using an antimicrobial broth dilution method on microtiter plates. The Minimal Inhibitory Concentration (MIC) was also measured for each example compound and azithromycin with Mycobacterium avium complex (MAC). Mycobacterium avium complex (MAC) is a term that covers both M. avium and M. intracellulare.
The antibacterial activities of example compounds 1 to 31 and azithromycin were investigated. The Minimal Inhibitory Concentration (MIC—the minimal dose required to inhibit bacterial growth) and the Minimal Bactericidal Concentration (MBC—the minimal dose required to kill bacteria) were measured for each compound for Streptococcus pneumoniae (ATCC49619), Staphylococcus aureus (ATCC29213), Bacillus megaterium (BM-11) and Escherichia coli (D-21) using an antimicrobial broth dilution method on 96 well microtiter plates.
A 256 μg/ml stock solution of each compound was prepared in Mueller-Hinton Broth and then further diluted by a 2-fold serial dilution. […]

The subject of another data set is Mycobacterium avium. The data set is described as follows: Assay 2: STC colorimetric microplate assay, M. avium. Format: cell-based.
Data set [5] relates to epithelial cells in vitro ALI culture. To be noted: cited from earlier work.
Data set [6] concerns Staphylococcus aureus (ATCC29213). The data set is described as follows: Assay 1: antimicrobial broth dilution on microtiter plates, Staphylococcus aureus. The data set is classed as cell-based. To be noted: S. aureus (ATCC29213). As for the experimental part: as §2, §3, §4
A short description of data set [7]: Stability in human plasma. The data set is classed as in vitro ADME. The conditions noted are these: room temperature. As for the experimental part:
Stability in Mouse and Human Plasma
The stability of the compounds in mouse and human plasma was performed using protein precipitation as sample clean-up and HPLC-MS detection. The plasma stability studies of the compounds was performed at room temperature for up to 4 hours. A stock solution of […] in DMSO was prepared for each compound. For the plasma stability samples, 100 μL of the stock solution was diluted with 3.9 mL of either mouse or human plasma to a final concentration of […]. The plasma was left to equilibrate for 10 minutes at room temperature before the first analysis. For each analyzed time point ([…]) a 100 μL aliquot of the plasma was removed and protein precipitation (PPT) was performed on the aliquot by adding 900 μL of (ACN:DMSO) 95:5. The precipitated sample was shaken for 60 seconds and then centrifuged. The supernatant was transferred to an HPLC vial and analyzed using HPLC-MS. The chromatographic signal area of the samples at the different time points were then compared against each other, by setting the initial analysis at t=0 min as 100% and then calculating the %-value for each subsequent time point.
as §1

≈ marks a conversion by molar mass, not a printed value.

Regarding `CC[C@H]1OC(=O)[C@H](C)[C@@H](O[C@H]2C[C@@](C)(OC)[C@@H](O)[C@H](C)O2)[C@H](C)[C@@H](O[C@@H]2O[C@H](C)C[C@H](N(C)C)[C@H]2O)[C@](C)(O)C[C@@H](C)CN(C)[C@H](C)[C@@H](O)[C@]1(C)O` [Azithromycin, (2R,3S,4R,5R,8R,10R,11R,12S,13S,14R)-11-[(2S,3R,4S,6R)-4-(dimethylamino)-3-hydroxy-6-methyl-tetrahydropyran-2-yl]oxy-2-ethyl-3,4,10-trihydroxy-13-[(2R,4R,5S,6S)-5-hydroxy-4-methoxy-4,6-dimethyl-tetrahydropyran-2-yl]oxy-3,5,6,8,10,12,14-heptamethyl-1-oxa-6-azacyclopentadecan-15-one], the solubility at 60 min in [1] worked out at 0.26 µM (≈ 0.195 µg/mL). Moreover, the MIC in data set [2] (Mycobacterium intracellulare S1005200118) was found to be 32 µg/mL (≈ 42.7 µM); in [2] (Mycobacterium intracellulare S1305150028), 4 µg/mL (≈ 5.34 µM); in [3], 1 µg/mL (≈ 1.34 µM); in data set [4], 0.06 µg/mL (≈ 0.0801 µM); in the data set on Escherichia coli (D-21), 4 µg/mL (≈ 5.34 µM); in the data set on Mycobacterium avium (Mycobacterium avium S1002170205) it was 16 µg/mL (≈ 21.4 µM). The MIC against Mycobacterium avium (Mycobacterium avium S1003050114) amounted to 32 µg/mL (≈ 42.7 µM); in [6], 2 µg/mL (≈ 2.67 µM). Besides, in the data set on patients with COPD, the “reduction of the hospitalisation rate and disease related exacerbations” value is given as 30%. In addition, the MBC stood at 2 µg/mL (≈ 2.67 µM) in data set [3], 0.06 µg/mL (≈ 0.0801 µM) in data set [4], 32 µg/mL (≈ 42.7 µM) with Escherichia coli (D-21) and 8 µg/mL (≈ 10.7 µM) in data set [6]. Moreover, the “effect on transepithelial resistance (TER) and cellular processing of tight junctions” value in data set [5] is given as “increasing transepithelial resistance”. Further, in data set [7], the “Degradation in Human Plasma at RT” value stood at 6 % per hour.

Source of the values: US11236120B2, “Azithromycin derivatives with epithelial barrier enhancement properties” (EpiEndo Pharmaceuticals ehf, priority 2015, dated 2022).
